This note sets out measurements from patent US5440033A, “Indolyl-, pyrrolyl- and pyrazolyl substituted benzazepines” (Schering Corporation, priority 1993, dated 1995).

By minimal effective dose is commonly meant the smallest amount tested that counted as effective. Broadly, the pKi is the negative decadic logarithm of the Ki, by convention in mol/L. For orientation: pIC50 means −log10 of the IC50, conventionally taken in molar units.

Data set [1] is described as follows: Conditioned avoidance suppression in rats (CAR). In kind it is in vivo. As to conditions: rat; for minimal effective dose: read-out: Rat CAR (minimal effective dose, MED). The protocol: N.Y. Acad. Sci. 66, 740 (1957). A series of experiments was carried out to assess the ability of the compounds of this invention to suppress the conditioned avoidance response (CAR) in rats.
Rats were required to jump onto a platform located 6.75 inches (17.15 cm) above the grid floor of an experimental chamber in response to a 5-second tone to avoid a 10-second foot shock (0.6 ma). Each experimental session consisted of 20 such trials presented at 30-second intervals. A correct CAR is scored whenever the rat jumps onto the platform during the tone (prior to foot shock). An escape response is scored when the rat jumps onto the platform during a shock. A response failure is defined as the lack of an escape response during the 10-second shock period.
Groups of 6-8 rats were trained in two consecutive days (total of 40 trials). Rats that reached criterion on day 2 (correct CARs on 16 or more of the 20 trials) were treated with either a test drug or vehicle on day 3. Suppression of CAR was analyzed statistically using Student's t-test comparing the performances of drug-treated to vehicle-treated rats.

For another data set, the target named is T1, D-2 receptor (Rattus norvegicus, UniProt P61169).
T1 construct: Striatal tissue was excised, pooled, and homogenized; from tissue; host or cells: rat brain striatum (male Sprague-Dawley)
T1 sequence (P61169 whole entry): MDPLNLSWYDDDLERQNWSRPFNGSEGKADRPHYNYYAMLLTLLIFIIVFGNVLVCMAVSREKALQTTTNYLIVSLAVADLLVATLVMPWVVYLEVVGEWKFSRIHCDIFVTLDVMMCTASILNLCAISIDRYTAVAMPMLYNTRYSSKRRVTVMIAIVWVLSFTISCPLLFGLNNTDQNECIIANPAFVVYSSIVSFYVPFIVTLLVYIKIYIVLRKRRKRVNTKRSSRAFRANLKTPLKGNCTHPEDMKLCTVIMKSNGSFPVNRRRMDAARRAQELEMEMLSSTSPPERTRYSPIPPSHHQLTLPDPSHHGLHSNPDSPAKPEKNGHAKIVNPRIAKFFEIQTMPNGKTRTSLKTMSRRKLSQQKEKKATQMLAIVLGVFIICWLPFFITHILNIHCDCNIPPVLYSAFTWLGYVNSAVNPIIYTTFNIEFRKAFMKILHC
Put plainly: Competitive inhibition assay, displacement of 3H-spiperone (D2), rat striatal tissue. The format is binding, rat (male Sprague-Dawley). The following applies: 3H-spiperone 0.2 nM, rat striatum; for pKi: pH 7.4, 37° C., 15 minutes. The text has this:
(§1) A methodology for characterization of binding and an interpretation of the data are described by Billard et al., Life Sciences 35, 1885 (1984) in which the binding of the benzazepine (R)-(+)-8-chloro-2,3,4,5-tetrahydro-3-methyl-5-phenyl-1H-3-benzazepin-7-olhemimaleate (SCH 23390) to the dopamine D-1 receptor is characterized.
(§2) Tritiated SCH 23390 and tritiated spiperone (a potent D-2 ligand) were obtained as described in the Billard et al. reference supra and serially diluted in 0.05M Tris buffer, pH 7.4, as required. A compound of the invention is diluted in 0.05M Tris buffer, pH 7.4, as required.
(§3) Male Sprague-Dawley rats (200 to 250 g) from Charles River Breeding Laboratories, Mass. were used to obtain brain tissue. The rats were humanely sacrificed and their brains removed and placed on ice. Striatal tissue was excised, pooled, and homogenized (Brinkman Polytron, 10 seconds) in 100 volumes (w/v) of ice cold 50 mM Tris buffer, pH 7.4 (at 25° C.). The homogenate was centrifuged at 20,000×g for 10 minutes. The resultant pellet was rehomogenized in Tris buffer and centrifuged again. The final pellet was resuspended in 50 mM Tris buffer pH 7.4 containing 120 mM NaCl, […], 1 mM CaCl2, and 1 mM MgCl2.
(§4) Polypropylene incubation tubes received 100 μl of the individual test compounds at various concentrations dissolved or suspended in 0.05M Tris, pH 7.4 containing 4 mg/ml methylcellulose, 100 μl of a solution of ^3 H-SCH 23390 in Tris buffer (final reaction mixture concentration=0.3 nM) or 100 μl of a solution of 3H-spiperone in Tris buffer (final concentration=0.2 nM) and 800 μl of tissue suspension (ca. 3 mg/assay). Tubes were incubated at 37° C. for 15 minutes and rapidly vacuum filtered through Whatman GM/B filters and rinsed 4 times with 4 ml of ice cold 50 mM Tris buffer, pH 7.4. The filters were transferred to scintillation vials, equilibrated with 10 ml of scintillant (Scintosol, Isolab, Inc.) for 16 hours at 25° C. and the radioactivity determined in a liquid scintillation counter. Ki values were determined as described by Billard et al. using the relationship Ki =IC50 /(1+([L]/KD)) wherein IC50 =concentration of test drug necessary to displace 50% of specifically bound ^3 H-Sch 23390, [L]=concentration of radioligand used in the assay, and KD =dissociation constant.
On the technique in general: In a radioligand displacement assay an active substance lowers the binding of a labelled ligand.

Data set [2] can be described thus: Conditioned avoidance response, monkey (parenthesised entries in the Rat CAR column). The format is in vivo.
Another data set concerns the target T2, dopamine D-1 receptor (Rattus norvegicus, UniProt P18901).
T2 construct: Striatal tissue was excised, pooled, and homogenized; from tissue; host or cells: rat brain striatum (male Sprague-Dawley)
Put plainly: Competitive inhibition assay, displacement of 3H-SCH 23390 (D1), rat striatal tissue. In kind it is binding, rat (male Sprague-Dawley). The following applies: 3H-SCH 23390 0.3 nM, rat striatum, pH 7.4, 37° C., 15 minutes.
Excerpt: as §1, §2, §3, §4

[3] abbreviates: @ 1 h, lowest dose tested that significantly (P<0.05) reduced avoidance responding.

The structures appear in SMILES notation. pIC50, pKi: −log10 of the molar value. Where two headings read alike, the source gives them in different places.

T2 sequence (P18901 whole entry): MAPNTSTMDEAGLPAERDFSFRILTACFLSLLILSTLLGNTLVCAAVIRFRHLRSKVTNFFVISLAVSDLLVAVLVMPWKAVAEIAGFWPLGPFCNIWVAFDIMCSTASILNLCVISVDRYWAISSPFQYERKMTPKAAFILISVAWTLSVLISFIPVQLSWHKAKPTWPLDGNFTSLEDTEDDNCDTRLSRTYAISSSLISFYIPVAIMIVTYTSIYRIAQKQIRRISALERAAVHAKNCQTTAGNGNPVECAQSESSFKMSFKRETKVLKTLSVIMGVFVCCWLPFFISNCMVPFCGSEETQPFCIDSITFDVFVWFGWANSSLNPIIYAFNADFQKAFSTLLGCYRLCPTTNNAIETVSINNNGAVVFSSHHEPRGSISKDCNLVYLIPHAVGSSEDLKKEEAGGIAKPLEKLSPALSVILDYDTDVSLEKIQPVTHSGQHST

As to `Cc1cc(C2CN(C)CCc3cc(Cl)c(O)cc32)c(C)[nH]1` (racemic) [(±)C], the minimal effective dose in data set [1] (setting [3]) was found to be 10 mg/kg; in data set [1] (@ 6 h), 50 mg/kg. Besides, the values for the pKi at D-2 receptor and at dopamine D-1 receptor were 5.61 and 8.55, respectively. In data set [2] (po @ 6 h), the “CAR, monkey” value is 1.5 mpk.
With `Cc1cc(C2CN(C)CCc3cc(Cl)c(O)cc32)c(C)[nH]1` (single isomer, unassigned; (+)) [(+)D], the tremors entry in data set [1] (30 po) is given as “tremors at 30 po”. Moreover, the minimal effective dose in data set [1] (setting [3]) amounted to 10 mg/kg. The pKi on D-2 receptor is 6.23; at dopamine D-1 receptor, 9.27.
For the compound `Cc1cc(C2CN(C)CCc3cc(Cl)c(O)cc32)c(C)[nH]1` (single isomer, unassigned; (-)) [(-)E], the pKi was 6.21 on D-2 receptor and 7.39 on dopamine D-1 receptor.
In the case of `CN1CCc2cc(Cl)c(O)cc2C(n2ccc3ccccc32)C1` (centres unmarked) [A], the pKi at D-2 receptor is less than 5.00; at dopamine D-1 receptor it was 7.59.
The compound `Cc1cc2c(cc1O)C(n1ccc3ccccc31)CN(C)CC2` (centres unmarked) [B] showed a pIC50 on D-2 receptor (printed as IC50 in the Ki column) of less than 5.00. The same compound showed a pKi at dopamine D-1 receptor of 6.22.
Take `CN1CCc2cc(Cl)c(O)cc2C(n2cccn2)C1` (centres unmarked) [Compound I]: the negative-log Ki (pKi) on D-2 receptor is less than 5.00; on dopamine D-1 receptor it was 7.92.
The like results for `CN1CCc2cc(Cl)c(O)cc2C(c2cccn2C)C1` (centres unmarked) [F] were, in that order, 5.00 and 7.39.
As to `Cc1cc(C2CN(C)CCc3cc(Cl)c(O)cc32)c(C)n1C` (centres unmarked) [G], in data set [1] (setting [3]), the minimal effective dose came to 10 mg/kg. The negative logarithm of the Ki (pKi) on D-2 receptor is 6.42; at dopamine D-1 receptor it was 8.55. The “CAR, monkey” value in data set [2] (@ 4 h) is listed as 5 mpk.
In the case of `CN1CCc2cc(Cl)c(O)cc2C(c2ccn(C)c2)C1` (centres unmarked) [H], the pKi is 6.75 at D-2 receptor and 8.66 at dopamine D-1 receptor.
On the same counts, the results for `Cc1[nH]c2ccccc2c1C1CN(C)CCc2cc(Cl)c(O)cc21` (centres unmarked) [J] are less than 5.00 and 6.90.
For `CN1CCc2cc(Cl)c(O)cc2C(c2c[nH]c3ccccc23)C1` (centres unmarked) [K], the negative-log Ki (pKi) on D-2 receptor is less than 5.00; on dopamine D-1 receptor it was 7.26.
